Laboratory results as given in patent US9737077B2, “Method for controlling sexuality of hop” (priority 2011, dated 2017).
“Also recorded” adds a separate entry of the source. Like-named read-outs stand apart in the source and are kept apart here.

What was measured:
hop female plant = conditions: spraying 500 ppm (Non Patent Literature 1); cited from earlier work
Cannabis sativa = conditions: cited from earlier work
[1] = tested on: hop variety Kirin No. 2 (female plant); assay: Forming a male flower on a female plant bred in a greenhouse (Part 3), different chemicals
Method: An over-wintering plant or strain of the hop variety “Kirin No. 2” was cultivated in the same manner as in Example 2.
Silver thiosulfate (STS) was prepared by mixing sodium thiosulfate pentahydrate and silver nitrate in a molar ratio of 8:1. An area to which water was applied was arranged as a control area.
Flower buds were observed from the beginning of July and the sexuality was determined from the mid-July.

[2] = tested on: female plant of Momordica dioica; conditions: Non Patent Literature 7; cited from earlier work

CC(Sc1ccccc1Cl)C(=O)[O-].[Na+] (stereo not drawn) [α (2-chlorophenylthio)propionic acid, sodium salt]
flower formed on hop female plant (hop female plant): a male flower was formed

silver thiosulfate complex [STS]
flowers formed on main and lateral branches (Cannabis sativa; in vivo): an intersex flower, an incomplete male flower with few stamens or a complete male flower, together with female flowers, were formed | condition of applied leaves and growth ([1]; in vivo): the applied leaves were partially browned but continued growing | flower sexuality observed ([1]; in vivo): the female flowers were predominantly observed but the male flowers were observed in part; also recorded: male flowers formed; also recorded: female flowers and male flowers

O=[N+]([O-])[O-].[Ag+] [silver nitrate]
flowers formed on main and lateral branches (Cannabis sativa; applied to a growing shoot tip (Non Patent Literature 8)): an intersex flower, an incomplete male flower with few stamens or a complete male flower, together with female flowers, were formed | flower formed on female plant [2]: a hermaphrodite flower is formed | flower sexuality observed ([1]; 8 mM, leaf application 4 times about every 10 days, greenhouse): the female flowers were predominantly observed but the male flowers were observed in part; also recorded: female flowers and male flowers | flower sexuality observed ([1]; 16 mM, leaf application 4 times about every 10 days, greenhouse): male flowers were observed; also recorded: male flowers formed | flower sexuality observed ([1]; 32 mM, leaf application 4 times about every 10 days, greenhouse): male flowers were observed; also recorded: male flowers formed | condition of applied leaves and growth ([1]; all treated areas (all concentrations applied), greenhouse): the applied leaves were partially browned but continued growing
